Data: ChEMBL document CHEMBL1201862, “PubChem BioAssay data set” (2004)
Activity calls are given as the source filed them.

Biological target: T1, Aminopeptidase N (Plasmodium falciparum FcB1/Columbia, UniProt O96935)
T1 sequence (O96935 whole entry): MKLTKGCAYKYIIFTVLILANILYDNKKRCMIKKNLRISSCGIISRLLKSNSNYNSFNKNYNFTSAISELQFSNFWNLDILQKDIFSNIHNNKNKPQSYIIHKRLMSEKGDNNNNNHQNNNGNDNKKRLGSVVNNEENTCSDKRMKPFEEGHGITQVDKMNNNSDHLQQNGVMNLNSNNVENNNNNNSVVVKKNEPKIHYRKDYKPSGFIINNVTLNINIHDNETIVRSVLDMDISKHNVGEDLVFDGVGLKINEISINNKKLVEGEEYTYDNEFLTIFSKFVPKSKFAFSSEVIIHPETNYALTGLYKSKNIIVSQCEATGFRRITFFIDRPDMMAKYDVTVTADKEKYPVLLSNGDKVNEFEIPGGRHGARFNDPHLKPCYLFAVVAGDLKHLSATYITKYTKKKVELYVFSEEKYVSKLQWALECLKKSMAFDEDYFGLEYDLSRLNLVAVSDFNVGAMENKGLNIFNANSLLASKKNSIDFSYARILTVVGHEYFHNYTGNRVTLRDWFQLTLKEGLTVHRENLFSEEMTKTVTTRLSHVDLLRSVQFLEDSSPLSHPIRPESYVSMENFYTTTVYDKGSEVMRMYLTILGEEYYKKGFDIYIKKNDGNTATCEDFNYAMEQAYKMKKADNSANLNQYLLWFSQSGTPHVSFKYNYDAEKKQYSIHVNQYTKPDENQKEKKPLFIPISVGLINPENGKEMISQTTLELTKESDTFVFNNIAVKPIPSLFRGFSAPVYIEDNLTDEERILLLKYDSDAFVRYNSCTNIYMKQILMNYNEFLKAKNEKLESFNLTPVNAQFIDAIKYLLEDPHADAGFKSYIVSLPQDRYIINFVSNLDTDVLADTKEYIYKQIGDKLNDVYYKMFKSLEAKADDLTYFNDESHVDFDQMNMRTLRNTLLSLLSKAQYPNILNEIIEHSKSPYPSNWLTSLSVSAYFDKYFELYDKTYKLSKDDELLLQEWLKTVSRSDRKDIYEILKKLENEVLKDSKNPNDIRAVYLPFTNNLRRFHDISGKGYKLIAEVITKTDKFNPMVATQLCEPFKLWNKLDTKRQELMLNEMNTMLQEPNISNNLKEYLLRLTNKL
Assay: malaria alanyl aminopeptidase activity blockers – biochemical, fluorogenic H-Leu-NHMec substrate, 1536-well (AID 1445)
Parameters: species or system Plasmodium falciparum 3D7, 3D7
Conditions: not given

SMILES	IC50
O=C(O)/C(=C\c1ccc(-c2ccc(F)cc2)o1)c1ccccc1	51.4 µM (active)
Cc1ccc(CNC(=O)CSc2nc3ccsc3c(=O)n2NC(=O)c2ccccc2)cc1	11.1 µM (active)
CCOC(=O)N1CCN(C(=O)C(=O)NNC(=O)COc2ccc(Cl)cc2)CC1	106 µM (active)
O=C(NCc1ccc2c(c1)OCO2)C1CCCN(S(=O)(=O)c2cccnc2)C1 (stereo unspecified)	70.7 µM (active)

Tested on: Streptococcus sp. 'group A'
Assay: Streptococcus pyogenes SK(-)GAS viability under kanamycin – luminescence, BacTiterGlo, confirmation, counter-screen for streptokinase expression inhibitor project, dose response (AID 1900)
Format: functional, organism-based
Conditions: not given

SMILES	EC50
COc1cc2nc(CSc3nc(-c4ccc(F)cc4)cs3)nc(O)c2cc1OC	> 150 µM (not active)
CCCOc1ccc(C(=O)NNC(=S)NC(=O)c2cc(-c3ccc(Cl)cc3)nc3ccccc23)cc1	< 0.06 µM (active)

Biological target: T2, Streptokinase A (Streptococcus pyogenes serotype M1, UniProt P10520)
T2 sequence (P10520 whole entry): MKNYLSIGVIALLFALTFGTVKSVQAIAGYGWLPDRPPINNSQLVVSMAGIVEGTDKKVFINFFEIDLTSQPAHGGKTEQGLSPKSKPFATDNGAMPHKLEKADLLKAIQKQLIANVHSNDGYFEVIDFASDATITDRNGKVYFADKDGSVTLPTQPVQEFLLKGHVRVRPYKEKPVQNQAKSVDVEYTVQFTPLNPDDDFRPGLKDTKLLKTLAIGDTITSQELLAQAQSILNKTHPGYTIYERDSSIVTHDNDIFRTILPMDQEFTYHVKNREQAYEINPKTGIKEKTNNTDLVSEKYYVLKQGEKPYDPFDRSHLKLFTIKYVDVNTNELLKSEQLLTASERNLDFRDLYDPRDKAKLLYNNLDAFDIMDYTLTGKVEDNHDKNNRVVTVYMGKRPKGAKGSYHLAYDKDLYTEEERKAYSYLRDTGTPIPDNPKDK
Assay: viability-normalized secreted streptokinase activity reduction – plasminogen activation absorbance, OD405, dose response (AID 1914);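 note: secreted streptokinase activity via plasminogen activation per viability signal from cell pellet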
Format: functional, Streptococcus pyogenes M1 GAS
Conditions: not given

SMILES	EC50
COc1cc2nc(CSc3nc(-c4ccc(F)cc4)cs3)nc(O)c2cc1OC	> 150 µM (not active)

Biological target: T3, Estrogen receptor (Homo sapiens, UniProt P03372);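 note: potency for inhibiting coactivator peptide recruitment to the receptor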
T3 sequence (P03372 whole entry): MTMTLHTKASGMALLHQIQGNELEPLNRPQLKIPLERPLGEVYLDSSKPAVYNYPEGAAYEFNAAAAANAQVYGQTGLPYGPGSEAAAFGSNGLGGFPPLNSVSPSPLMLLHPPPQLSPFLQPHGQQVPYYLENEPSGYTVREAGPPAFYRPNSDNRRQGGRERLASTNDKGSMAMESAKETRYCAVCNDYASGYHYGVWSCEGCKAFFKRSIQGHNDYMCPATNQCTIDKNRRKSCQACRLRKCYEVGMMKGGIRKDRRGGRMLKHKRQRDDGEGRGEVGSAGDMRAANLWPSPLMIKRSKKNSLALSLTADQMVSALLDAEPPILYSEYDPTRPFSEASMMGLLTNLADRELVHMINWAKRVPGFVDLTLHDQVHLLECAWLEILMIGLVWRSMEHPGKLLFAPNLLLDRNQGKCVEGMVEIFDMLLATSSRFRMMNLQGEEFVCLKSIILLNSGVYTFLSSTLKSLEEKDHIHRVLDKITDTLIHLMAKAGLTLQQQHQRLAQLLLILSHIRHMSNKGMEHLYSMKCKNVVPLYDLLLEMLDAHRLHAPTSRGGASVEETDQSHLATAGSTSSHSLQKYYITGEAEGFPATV
Assay: not given
Conditions: not given

SMILES	IC50
Cc1ccc(-c2nnn(CC(=O)Nc3ccc4nn(-c5ccccc5)nc4c3)n2)o1	> 50 µM (not active)
CCC(=O)Nc1nonc1-c1nc2ccccc2n1N(C(=O)CC)C(=O)CC	> 50 µM (not active)
O=S(=O)(c1cccc(-c2cn3cccnc3n2)c1)N1CCCCCC1	22.3 µM (active)
CSc1nc(NCc2ccco2)c2ccccc2n1	> 50 µM (not active)
Brc1ccc(-c2nnc(-c3cccnc3)c3conc23)cc1	6.62 µM (active)
N#C/C(=C(\O)Nc1ccc(Cl)cc1)c1nc2ccccc2[nH]1	27.1 µM (active)

Tested on: not listed separately
Assay: viability of PTEN-deleted HCT116 cells – cell-based, HCT116 PTEN knockout, dose response (AID 1047);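 note: HCT116 colon tumor cells with PTEN knocked out; cells exposed to compound for 60 hours before readout; potency for loss of cell viability measured by luminescence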
Format: functional
Conditions: not given

SMILES	EC50
N#C/C(=C(\O)Nc1ccc(Cl)cc1)c1nc2ccccc2[nH]1	31.9 µM (active)

Tested on: not listed separately
Assay: viability of HCT116 lacking mutant beta-catenin – cell-based, human colon tumor, dose response (AID 1045);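 note: HCT116 colon tumor cells with beta catenin knocked out; cells exposed to compound for 60 hours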
Format: functional
Conditions: not given

SMILES	EC50
N#C/C(=C(\O)Nc1ccc(Cl)cc1)c1nc2ccccc2[nH]1	35.1 µM (active)

Tested on: Streptococcus
Assay: GAS UMAA2166 growth inhibition – luminescence, BacTiterGlo, counter-screen for streptokinase expression inhibitor project, dose response (AID 1915);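 note: potency for reduction of bacterial viability or growth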
Format: functional, organism-based
Conditions: not given

SMILES	EC50
COc1cc2nc(CSc3nc(-c4ccc(F)cc4)cs3)nc(O)c2cc1OC	> 150 µM (not active)
CCCOc1ccc(C(=O)NNC(=S)NC(=O)c2cc(-c3ccc(Cl)cc3)nc3ccccc23)cc1	< 0.06 µM (active)

Tested on: not listed separately
Assay: Luminescence Cell-Based Dose Retest to Confirm Inhibitors of Cancer Stem Cells. [Related pubchem assays (depositor defined):AID2717, AID2721]
Format: functional
Conditions: Homo sapiens

SMILES	AC50
O=S(=O)([N-]c1nc2ccccc2nc1-[n+]1ccc(Cc2ccccc2)cc1)c1ccc(Br)s1	6.23 µM (active)

Biological target: T4, Heat shock factor protein 1 (Mus musculus, UniProt P38532)
T4 sequence (P38532 whole entry): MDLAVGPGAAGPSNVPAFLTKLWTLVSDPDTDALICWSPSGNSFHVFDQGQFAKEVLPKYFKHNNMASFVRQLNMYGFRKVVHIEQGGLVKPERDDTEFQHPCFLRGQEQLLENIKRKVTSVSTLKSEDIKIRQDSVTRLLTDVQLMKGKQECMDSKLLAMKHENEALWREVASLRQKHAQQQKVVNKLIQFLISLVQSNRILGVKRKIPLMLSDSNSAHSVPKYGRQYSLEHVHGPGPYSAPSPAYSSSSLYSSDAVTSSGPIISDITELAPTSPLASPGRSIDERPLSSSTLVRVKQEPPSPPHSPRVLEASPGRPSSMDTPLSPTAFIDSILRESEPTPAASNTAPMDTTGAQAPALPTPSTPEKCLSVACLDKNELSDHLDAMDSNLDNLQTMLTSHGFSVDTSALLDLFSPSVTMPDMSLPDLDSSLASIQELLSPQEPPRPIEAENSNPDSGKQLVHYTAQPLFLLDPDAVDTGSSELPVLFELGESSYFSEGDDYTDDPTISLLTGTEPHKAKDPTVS
Assay: enhancement of HSF1-driven luciferase signal – cell-based, NIH3T3, luminescence, dose retest, confirmation (AID 435004);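 note: stress induced by proteasome inhibitor MG132 added 30 min after compound; luciferase reporter driven by HSF1 response element in NIH3T3 cells; actives raise luminescence as potentiators of the MG132 stress response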
Format: functional
Conditions: not given

SMILES	EC50
COc1cc2nc(CSc3nc(-c4ccc(F)cc4)cs3)nc(O)c2cc1OC	> 260 µM (inactive)
CC1(C)c2cc(O)ccc2OC1N1CCOCC1 (stereo unspecified)	> 260 µM (inactive)
Cc1cc(O)nc(-n2ncc(C#N)c2N)n1	> 260 µM (inactive)

Tested on: INS1
Assay: INS-1E survival protection against cytokine death – cell-based, luminescence, retest, dose response (AID 449756);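 note: cell death triggered by IL-1 beta plus TNF-alpha plus IFN-gamma mixture; protective hits raise ATP signal compared with cytokine alone wells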
Format: functional
Conditions: Rattus norvegicus

SMILES	AC50
O=S(=O)([N-]c1nc2ccccc2nc1-[n+]1ccc(Cc2ccccc2)cc1)c1ccc(Br)s1	6.81 µM (active)

Biological target: T5, Polyadenylate-binding protein 1 (Homo sapiens, UniProt P11940)
T5 sequence (P11940 whole entry): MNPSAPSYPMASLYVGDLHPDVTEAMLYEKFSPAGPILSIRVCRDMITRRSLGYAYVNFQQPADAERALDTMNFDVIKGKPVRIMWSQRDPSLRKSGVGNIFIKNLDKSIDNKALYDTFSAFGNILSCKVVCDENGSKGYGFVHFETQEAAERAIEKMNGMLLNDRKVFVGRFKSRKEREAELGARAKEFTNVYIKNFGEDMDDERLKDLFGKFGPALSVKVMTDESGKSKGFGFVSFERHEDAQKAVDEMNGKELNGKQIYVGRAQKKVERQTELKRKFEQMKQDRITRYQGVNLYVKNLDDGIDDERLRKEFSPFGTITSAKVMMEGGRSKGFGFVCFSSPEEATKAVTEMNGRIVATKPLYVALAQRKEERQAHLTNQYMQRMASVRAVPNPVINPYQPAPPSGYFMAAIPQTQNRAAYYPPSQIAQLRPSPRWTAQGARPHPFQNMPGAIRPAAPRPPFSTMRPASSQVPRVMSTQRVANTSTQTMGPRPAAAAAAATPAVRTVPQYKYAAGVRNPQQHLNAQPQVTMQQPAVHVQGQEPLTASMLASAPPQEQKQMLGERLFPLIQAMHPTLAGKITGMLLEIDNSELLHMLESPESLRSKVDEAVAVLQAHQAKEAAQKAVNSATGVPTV
Assay: MLLE binding blockers, Cy5 peptide tracer – biochemical, fluorescence polarization, Cy5-PAM2 peptide, secondary, miRNA deadenylation inhibitor project, dose response (AID 602260)
Format: functional
Conditions: read-out: IC50_Mean

SMILES	IC50
O=S(=O)([N-]c1nc2ccccc2nc1-[n+]1ccc(Cc2ccccc2)cc1)c1ccc(Br)s1	> 66 µM (inactive)
CCCOc1ccc(C(=O)NNC(=S)NC(=O)c2cc(-c3ccc(Cl)cc3)nc3ccccc23)cc1	> 66 µM (inactive)

Biological target: T5, Polyadenylate-binding protein 1
Assay: MLLE domain peptide-binding blockers, IC50 – biochemical, fluorescence polarization, FITC-PAM2 peptide, dose response (AID 602259)
Format: functional
Conditions: read-out: IC50_Mean

SMILES	IC50
O=S(=O)([N-]c1nc2ccccc2nc1-[n+]1ccc(Cc2ccccc2)cc1)c1ccc(Br)s1	52.3 µM (inactive)
CCCOc1ccc(C(=O)NNC(=S)NC(=O)c2cc(-c3ccc(Cl)cc3)nc3ccccc23)cc1	> 66 µM (inactive)
